The results in this text go back to article PMC10179972, “New Hybrid Tetrahydropyrrolo[3,2,1-ij]quinolin-1-ylidene-2-thioxothiazolidin-4-ones as New Inhibitors of Factor Xa and Factor XIa: Design, Synthesis, and In Silico and Experimental Evaluation” (Molecules, 2023).

One assay addresses T1, factor Xa (Homo sapiens, UniProt P00742).
T1 construct: followed by the addition of factor Xa (final concentration, 2.5 nmol·L^–1)
As to the kind of experiment: Inhibition of factor Xa, kinetics of hydrolysis of chromogenic substrate S2765. To be noted: for inhibition at 30 µM: 30 μM compound, factor Xa 2.5 nmol/L, S2765 200 μmol/L, pH 8.0, read-out: Percent Inhibition at 30 μM, Xa; for IC50: substrate S2765, buffer solution. The class given is biochemical. The procedure:
We measured the kinetics of the hydrolysis of the specific substrates S2765 or S2366 by factors Xa and XIa, respectively, in the buffer solution and in the presence of various concentrations of compounds.
(§1) A specific low-molecular-weight chromogenic substrate, S2765 (Z-D-Arg-Gly-Arg-pNA·2HCl), was used in the case of factor Xa, while the substrate S2366 (pyroGlu-Pro-ArgpNA·HCl) (both substrates from Chromogenix, USA) was used for factor XIa.
A buffer containing 140 mM NaCl, 20 mM HEPES, and 0.1% PEG 6000 (pH 8.0) was placed in the wells of a 96-well plate, followed by the addition of factor Xa (final concentration, 2.5 nmol·L^–1) or XIa (final concentration 0.8 nmol·L^–1), the substrate S2765 (final concentration, 200 μmol·L^–1) or S2366 (final concentration, 200 μmol·L^–1), and a solution of the test compound in DMSO (final concentration, 30 μmol·L^–1; the DMSO content in the well was no more than 2%). […] The initial rate of substrate degradation was determined from the initial slope of the 4-nitroaniline-formation curve. The rate of substrate degradation by the enzyme in the presence of the inhibitor was expressed as a percentage relative to the rate of substrate degradation in the absence of the inhibitor. The data obtained were processed using GraphPad Prism and OriginPro 8 software.

In a further assay the target is factor XIa (Homo sapiens, UniProt P03951). As to the kind of experiment: Inhibition of factor XIa, kinetics of hydrolysis of chromogenic substrate S2366. To be noted: for inhibition at 30 µM: 30 μM compound, factor XIa 0.8 nmol/L, S2366 200 μmol/L, pH 8.0, read-out: Percent Inhibition at 30 μM, XIa; for IC50: substrate S2366, buffer solution. The class given is biochemical. The procedure: Compounds 12, 14 and 16 were evaluated for their anticoagulant activity against factors Xa and Xia, and the results are presented in Table 1. For the best Xa and XIa inhibitors, additional measurements were performed to determine the IC50 values. We measured the kinetics of the hydrolysis of the specific substrates S2765 or S2366 by factors Xa and XIa, respectively, in the buffer solution and in the presence of various concentrations of compounds.
as §1
A buffer containing 140 mM NaCl, 20 mM HEPES, and 0.1% PEG 6000 (pH 8.0) was placed in the wells of a 96-well plate, followed by the addition of factor Xa (final concentration, 2.5 nmol·L^–1) or XIa (final concentration 0.8 nmol·L^–1), the substrate S2765 (final concentration, 200 μmol·L^–1) or S2366 (final concentration, 200 μmol·L^–1), and a solution of the test compound in DMSO (final concentration, 30 μmol·L^–1; the DMSO content in the well was no more than 2%). The kinetics of the formation of p-nitroaniline were measured using a THERMOmax Microplate Reader (Molecular Devices Corporation, USA) using the absorption of light with a wavelength of 405 nm. The initial rate of substrate degradation was determined from the initial slope of the 4-nitroaniline-formation curve. The rate of substrate degradation by the enzyme in the presence of the inhibitor was expressed as a percentage relative to the rate of substrate degradation in the absence of the inhibitor. The data obtained were processed using GraphPad Prism and OriginPro 8 software.

Sequence of factor XIa (P03951 388-625 limits assumed): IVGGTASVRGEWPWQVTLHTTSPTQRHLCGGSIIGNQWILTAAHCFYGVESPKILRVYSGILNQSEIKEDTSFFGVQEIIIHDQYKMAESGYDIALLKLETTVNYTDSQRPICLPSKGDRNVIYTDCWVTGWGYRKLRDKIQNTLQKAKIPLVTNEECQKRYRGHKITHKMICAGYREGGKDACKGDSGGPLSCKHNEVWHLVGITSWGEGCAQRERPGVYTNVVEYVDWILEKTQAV
Sequence of factor XIa (P03951 19-387 partner limits assumed): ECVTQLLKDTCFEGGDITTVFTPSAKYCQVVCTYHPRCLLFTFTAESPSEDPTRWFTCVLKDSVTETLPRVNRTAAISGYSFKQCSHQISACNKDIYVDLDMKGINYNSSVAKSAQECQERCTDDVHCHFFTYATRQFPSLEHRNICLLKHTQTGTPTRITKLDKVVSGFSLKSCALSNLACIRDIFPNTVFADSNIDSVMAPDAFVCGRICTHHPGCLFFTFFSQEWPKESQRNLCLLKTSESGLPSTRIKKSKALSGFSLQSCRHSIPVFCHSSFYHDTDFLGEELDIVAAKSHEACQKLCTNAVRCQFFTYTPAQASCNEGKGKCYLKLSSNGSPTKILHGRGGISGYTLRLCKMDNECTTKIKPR
T1 sequence (P00742 235-488 limits assumed): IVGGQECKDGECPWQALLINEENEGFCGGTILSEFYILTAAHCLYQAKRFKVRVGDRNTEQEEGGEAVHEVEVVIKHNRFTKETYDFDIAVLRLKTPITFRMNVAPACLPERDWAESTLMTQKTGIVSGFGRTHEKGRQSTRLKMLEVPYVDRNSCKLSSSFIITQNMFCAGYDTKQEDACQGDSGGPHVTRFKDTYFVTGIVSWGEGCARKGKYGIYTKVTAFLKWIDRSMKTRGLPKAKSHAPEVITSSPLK
T1 sequence (P00742 41-179 partner limits assumed): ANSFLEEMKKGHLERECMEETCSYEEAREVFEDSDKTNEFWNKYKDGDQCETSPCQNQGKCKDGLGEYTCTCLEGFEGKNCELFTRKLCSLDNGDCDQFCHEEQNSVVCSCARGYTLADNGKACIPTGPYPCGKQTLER

In the case of `CC1CC(C)(C)N2C(=O)/C(=C3\SC(=S)NC3=O)c3cccc1c32` (centres unmarked) [12a, (Z)-2-Thioxo-5-(4,4,6-trimethyl-2-oxo-5,6-dihydro-4H-pyrrolo[3,2,1-ij]quinolin-1(2H)-ylidene)thiazolidin-4-one], on factor Xa, the inhibition at 30 µM stood at 94% and half-maximal inhibition (IC50) required 9.41 ± 0.35 µM. For the same compound, the inhibition at 30 µM at factor XIa turned out to be 22%.

As for `CC1CC(C)(C)N2C(=O)/C(=C3\SC(=S)NC3=O)c3cc(I)cc1c32` (centres unmarked) [12b, (Z)-5-(8-Iodo-4,4,6-trimethyl-2-oxo-5,6-dihydro-4H-pyrrolo[3,2,1-ij]quinolin-1(2H)-ylidene)-2-thioxothiazolidin-4-one], the values for the inhibition at 30 µM on factor Xa and on factor XIa were 81% and 12%, respectively. Further, the IC50 against factor Xa worked out at 3.53 ± 0.08 µM.

For the compound `CC1CC(C)(C)N2C(=O)/C(=C3\SC(=S)NC3=O)c3cc(OC(=O)c4ccccc4)cc1c32` (centres unmarked) [12c, (Z)-4,4,6-Trimethyl-2-oxo-1-(4-oxo-2-thioxothiazolidin-5-ylidene)-1,2,5,6-tetrahydro-4H-pyrrolo[3,2,1-ij]quinolin-8-yl benzoate], the inhibition at 30 µM at factor Xa came to 58%; on factor XIa, 72%.

As for `COc1ccccc1C(=O)Oc1cc2c3c(c1)C(C)CC(C)(C)N3C(=O)/C2=C1\SC(=S)NC1=O` (centres unmarked) [12d, (Z)-4,4,6-Trimethyl-2-oxo-1-(4-oxo-2-thioxothiazolidin-5-ylidene)-1,2,5,6-tetrahydro-4H-pyrrolo[3,2,1-ij]quinolin-8-yl 2-methoxybenzoate], the inhibition at 30 µM came out at 63% on factor Xa and 98% at factor XIa. Also, the IC50 against factor Xa was 2.35 ± 0.22 µM; against factor XIa, 3.79 ± 0.03 µM.

In the case of `COc1cc(C(=O)Oc2cc3c4c(c2)C(C)CC(C)(C)N4C(=O)/C3=C2\SC(=S)NC2=O)cc(OC)c1OC` (centres unmarked) [12e, (Z)-4,4,6-Trimethyl-2-oxo-1-(4-oxo-2-thioxothiazolidin-5-ylidene)-1,2,5,6-tetrahydro-4H-pyrrolo[3,2,1-ij]quinolin-8-yl 3,4,5-trimethoxybenzoate], at factor Xa, the inhibition at 30 µM came to 49%. Also, at factor XIa, the inhibition at 30 µM was 94% and the IC50 was 3.74 ± 0.33 µM.

`CCN1C(=O)/C(=C2/C(=O)N3c4c2cc(OC)cc4C(C)CC3(C)C)SC1=S` (centres unmarked) [12f, (Z)-3-Ethyl-5-(8-methoxy-4,4,6-trimethyl-2-oxo-5,6-dihydro-4H-pyrrolo[3,2,1-ij]quinolin-1(2H)-ylidene)-2-thioxothiazolidin-4-one]: the inhibition at 30 µM stood at 18% on factor Xa and 5% at factor XIa.

As for `CC1(c2ccccc2)CC(C)(C)N2C(=O)/C(=C3\SC(=S)NC3=O)c3cc(F)cc1c32` (centres unmarked) [12g, (Z)-5-(8-Fluoro-4,4,6-trimethyl-2-oxo-6-phenyl-5,6-dihydro-4H-pyrrolo[3,2,1-ij]quinolin-1(2H)-ylidene)-2-thioxothiazolidin-4-one], the inhibition at 30 µM on factor Xa was 99%; on factor XIa, 98%. The IC50 stood at 3.7 ± 0.03 µM against factor Xa and 5.03 ± 0.18 µM against factor XIa.

In the case of `CC1(c2ccccc2)CC(C)(C)N2C(=O)/C(=C3\SC(=S)NC3=O)c3cc(Br)cc1c32` (centres unmarked) [12h, (Z)-5-(8-Bromo-4,4,6-trimethyl-2-oxo-6-phenyl-5,6-dihydro-4H-pyrrolo[3,2,1-ij]quinolin-1(2H)-ylidene)-2-thioxothiazolidin-4-one], the inhibition at 30 µM at factor Xa was 73%; at factor XIa, 98%. Further, the IC50 was found to be 2.28 ± 0.23 µM against factor Xa and 3.73 ± 0.03 µM at factor XIa.

With `CC1(c2ccccc2)CC(C)(C)N2C(=O)/C(=C3\SC(=S)NC3=O)c3cc(I)cc1c32` (centres unmarked) [12i, (Z)-5-(8-Iodo-4,4,6-trimethyl-2-oxo-6-phenyl-5,6-dihydro-4H-pyrrolo[3,2,1-ij]quinolin-1(2H)-ylidene)-2-thioxothiazolidin-4-one], at factor Xa, the inhibition at 30 µM was 75% and half-maximal inhibition (IC50) was put at 3.44 ± 0.06 µM. Also, at factor XIa, the inhibition at 30 µM is 96% and the IC50 was found to be 5.04 ± 0.33 µM.
